Data published in patent US9505716B2, “Pyrrolidine triple reuptake inhibitors” (SUNOVION PHARMACEUTICALS INC., priority 2009, dated 2016).

Experiments:
[1] = target: T1, recombinant human dopamine transporter expressed in either CHO-K1 or HEK293 cells (Homo sapiens, UniProt Q01959); experiment: Dopamine functional uptake assay for human reuptake transporter; format: cell-based; conditions: functional uptake of dopamine
T1 construct: expressed in transfected cells; host or cells: CHO-K1 or HEK293
Method: (§1) Compounds were initially tested at 10 μM in duplicate.
Either CHO-K1 or HEK293 cells expressing human recombinant dopamine transporter were plated before the assay. Test compound and/or vehicle was preincubated with cells in modified HEPES buffer pH 7.1 or pH 7.4 for 20 minutes at 18 to 25° C. and 50 nM [^3H]dopamine was then added for an additional timed incubation period (10 to 30 minutes). After washing the cells to remove [^3H]dopamine not internalized, the cells were lysed, and the amount of tritium in the lysate was measured using a liquid scintillation counter to determine [^3H]dopamine uptake. Non-specific binding of tritium was measured in a control reaction containing 10 μM nomifensine, and was subtracted from the counts for assays to correct for non-specific binding of tritium. Reduction of [^3H]dopamine uptake by 50 percent or more (≧50%) relative to an uninhibited control reaction indicates significant inhibitory activity.

[2] = target: T2, recombinant human norepinephrine transporter expressed in either HEK293 or MDCK cells (Homo sapiens, UniProt P23975); experiment: Norepinephrine functional uptake assay for human reuptake transporter; format: cell-based; conditions: functional uptake of norepinephrine
T2 construct: expressed in transfected cells; host or cells: HEK293 or MDCK
Method: as §1
The cells were plated before the assay. Test compound and/or vehicle was preincubated with cells in modified HEPES buffer pH 7.1 or pH 7.4 for 20 minutes at 18 to 25° C. […] After the cells were washed to remove [^3H]norepinephrine not internalized, the cells were lysed, and the amount of tritium in the cell lysate was measured using a liquid scintillation counter to determine [^3H]norepinephrine uptake. Non-specific binding of tritium was measured in a control reaction containing […] (or […]), and was subtracted from the counts for assays to correct for non-specific binding of tritium. Reduction of [^3H]norepinephrine uptake by 50 percent or more (≧50%) relative to an uninhibited control reaction indicates significant inhibitory activity.

[3] = target: T3, recombinant human serotonin transporter expressed in HEK-293 cells (Homo sapiens, UniProt P31645); experiment: Serotonin functional uptake assay for human reuptake transporter; format: cell-based; conditions: functional uptake of serotonin; read-out: hSERT (IC50 nM)
T3 construct: expressed in transfected cells; host or cells: HEK-293
Method: as §1
HEK-293 cells expressing human serotonin transporter were plated before the assay. […] Cells with internalized [^3H]serotonin were washed and the amount of tritium taken into cells is counted using a liquid scintillation counter to determine [^3H]serotonin uptake. Non-specific binding of tritium was measured in a control reaction containing […], and was subtracted from the counts for assays to correct for non-specific binding of tritium. Reduction of [^3H]serotonin uptake by 50 percent or more (≧50%) relative to an uninhibited control reaction indicates significant inhibitory activity.

[4] = in vivo; cited from earlier work
serotonin uptake sites = serotonin uptake sites (Homo sapiens, UniProt P31645); conditions: compared with the racemic compound; cited from earlier work
Sequence of serotonin uptake sites (P31645 whole entry): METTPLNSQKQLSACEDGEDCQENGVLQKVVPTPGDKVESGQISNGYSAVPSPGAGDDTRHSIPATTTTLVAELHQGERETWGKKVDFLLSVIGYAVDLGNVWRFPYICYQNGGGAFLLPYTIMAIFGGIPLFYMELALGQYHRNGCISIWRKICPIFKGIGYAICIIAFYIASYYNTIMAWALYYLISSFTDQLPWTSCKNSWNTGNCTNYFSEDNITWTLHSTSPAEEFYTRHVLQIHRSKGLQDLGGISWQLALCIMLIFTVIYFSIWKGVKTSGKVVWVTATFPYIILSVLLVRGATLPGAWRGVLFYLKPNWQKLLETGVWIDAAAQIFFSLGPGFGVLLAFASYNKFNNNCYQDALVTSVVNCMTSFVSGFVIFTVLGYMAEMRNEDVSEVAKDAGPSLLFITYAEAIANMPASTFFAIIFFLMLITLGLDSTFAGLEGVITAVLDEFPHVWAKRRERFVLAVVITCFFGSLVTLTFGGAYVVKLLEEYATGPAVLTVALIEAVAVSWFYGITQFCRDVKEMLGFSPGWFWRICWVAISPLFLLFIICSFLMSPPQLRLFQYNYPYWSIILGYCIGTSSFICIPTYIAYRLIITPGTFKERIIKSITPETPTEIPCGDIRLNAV

T1 sequence (Q01959 whole entry): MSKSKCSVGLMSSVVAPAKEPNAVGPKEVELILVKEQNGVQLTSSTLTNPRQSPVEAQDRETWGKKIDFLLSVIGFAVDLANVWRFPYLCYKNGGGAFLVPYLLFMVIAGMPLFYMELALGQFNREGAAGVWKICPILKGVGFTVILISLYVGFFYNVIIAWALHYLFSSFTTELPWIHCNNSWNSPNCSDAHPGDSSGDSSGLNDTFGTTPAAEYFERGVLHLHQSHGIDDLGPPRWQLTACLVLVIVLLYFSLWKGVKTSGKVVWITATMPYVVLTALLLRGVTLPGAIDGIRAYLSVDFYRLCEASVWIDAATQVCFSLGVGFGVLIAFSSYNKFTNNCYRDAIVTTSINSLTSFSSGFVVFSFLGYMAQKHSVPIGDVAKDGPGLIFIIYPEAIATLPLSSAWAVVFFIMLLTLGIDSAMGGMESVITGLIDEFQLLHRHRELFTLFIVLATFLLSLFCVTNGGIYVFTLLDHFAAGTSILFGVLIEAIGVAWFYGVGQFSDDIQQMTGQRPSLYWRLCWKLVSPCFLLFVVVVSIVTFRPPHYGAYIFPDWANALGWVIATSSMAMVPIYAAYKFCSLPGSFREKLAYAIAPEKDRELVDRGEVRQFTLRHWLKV
T2 sequence (P23975 whole entry): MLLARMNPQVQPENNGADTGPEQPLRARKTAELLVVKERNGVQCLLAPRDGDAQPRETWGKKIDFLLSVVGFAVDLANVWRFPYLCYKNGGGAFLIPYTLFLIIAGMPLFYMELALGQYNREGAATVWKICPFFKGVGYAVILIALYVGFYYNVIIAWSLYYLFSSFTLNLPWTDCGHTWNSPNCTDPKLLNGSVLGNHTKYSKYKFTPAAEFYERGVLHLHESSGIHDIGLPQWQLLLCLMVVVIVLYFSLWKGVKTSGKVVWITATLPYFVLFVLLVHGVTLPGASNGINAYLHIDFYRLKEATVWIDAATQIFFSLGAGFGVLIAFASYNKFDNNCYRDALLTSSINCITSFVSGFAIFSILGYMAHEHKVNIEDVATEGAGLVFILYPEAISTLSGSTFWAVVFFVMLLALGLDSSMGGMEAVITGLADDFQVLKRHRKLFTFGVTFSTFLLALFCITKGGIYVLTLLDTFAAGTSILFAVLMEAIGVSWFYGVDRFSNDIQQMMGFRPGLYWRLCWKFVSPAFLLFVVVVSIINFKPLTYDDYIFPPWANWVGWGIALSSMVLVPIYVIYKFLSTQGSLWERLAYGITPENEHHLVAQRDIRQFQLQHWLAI
T3 sequence (P31645 whole entry): as the sequence (P31645 whole entry) above

| Compound | hDAT (IC50 nM) [1] | hNET (IC50 nM) [2] | IC50 [3] [nM] | immobility in the tail suspension test [4] | affinity for the serotonin uptake sites (serotonin uptake sites) |
| --- | --- | --- | --- | --- | --- |
| Clc1ccc(C2(C3CCNC3)CCCCC2)cc1Cl (single isomer, unassigned) [Compound 1] | ++ (IC50 ≦ 100 nM) | +++ (IC50 < 10 nM) | < 1 |  |  |
| Clc1ccc(C2(C3CCNC3)CCCCC2)cc1Cl (single isomer, unassigned) [Compound 2] | ++ (IC50 ≦ 100 nM) | ++ (IC50 ≦ 100 nM) | < 100 |  |  |
| Clc1ccc(C2(C3CCNC3)CCCC2)cc1Cl (single isomer, unassigned) [Compound 5] | ++ (IC50 ≦ 100 nM) | ++ (IC50 ≦ 100 nM) | < 100 |  |  |
| Clc1ccc(C2(C3CCNC3)CCCC2)cc1Cl (single isomer, unassigned) [Compound 6] | ++ (IC50 ≦ 100 nM) | ++ (IC50 ≦ 100 nM) | < 10 |  |  |
| Clc1ccc(C2(C3CCNC3)CCC2)cc1Cl (single isomer, unassigned) [Compound 7] | +++ (IC50 < 10 nM) | ++ (IC50 ≦ 100 nM) | < 100 |  |  |
| Clc1ccc(C2(C3CCNC3)CCC2)cc1Cl (single isomer, unassigned) [Compound 8] | ++ (IC50 ≦ 100 nM) | ++ (IC50 ≦ 100 nM) | < 100 |  |  |
| c1ccc2cc(C3(C4CCNC4)CCCCC3)ccc2c1 (single isomer, unassigned) [Compound 9] | ++ (IC50 ≦ 100 nM) | + (100 nM < IC50 ≦ 500 nM) | < 10 |  |  |
| c1ccc2cc(C3(C4CCNC4)CCCCC3)ccc2c1 (single isomer, unassigned) [Compound 10] | ++ (IC50 ≦ 100 nM) | ++ (IC50 ≦ 100 nM) | < 1 |  |  |
| c1ccc2cc(C3(C4CCNC4)CCCC3)ccc2c1 (single isomer, unassigned) [Compound 11] | +++ (IC50 < 10 nM) | +++ (IC50 < 10 nM) | < 1 |  |  |
| c1ccc2cc(C3(C4CCNC4)CCCC3)ccc2c1 (single isomer, unassigned) [Compound 12] | ++ (IC50 ≦ 100 nM) | ++++ (IC50 < 1 nM) | < 1 |  |  |
| c1ccc2cc(C3(C4CCNC4)CCC3)ccc2c1 (single isomer, unassigned) [Compound 13] | ++ (IC50 ≦ 100 nM) | ++ (IC50 ≦ 100 nM) | < 100 |  |  |
| c1ccc2cc(C3(C4CCNC4)CCC3)ccc2c1 (single isomer, unassigned) [Compound 14] | ++ (IC50 ≦ 100 nM) | ++ (IC50 ≦ 100 nM) | < 10 |  |  |
| Clc1ccc([C@@]23CNC[C@@H]2C3)cc1Cl (single isomer, unassigned) [DOV 21,947, (+)-1-(3,4-dichlorophenyl)-3-azabicyclo[3.1.0]hexane] |  |  |  | dose-dependent reduction in immobility | significantly greater affinity |
| CN1CCC(C2(c3ccc(Cl)c(Cl)c3)CCCCC2)C1 (centres unmarked) [Compound 3] | ++ (IC50 ≦ 100 nM) | + (100 nM < IC50 ≦ 500 nM) | 100 to 500 |  |  |
| CN1CCC(C2(c3ccc(Cl)c(Cl)c3)CCCCC2)C1 (centres unmarked) [Compound 4] | +++ (IC50 < 10 nM) | − (IC50 > 500 nM) | > 500 |  |  |
| Clc1ccc(C2(C3CCNC3)CCOCC2)cc1Cl (centres unmarked) [Compound 15] | ++ (IC50 ≦ 100 nM) | ++ (IC50 ≦ 100 nM) | < 100 |  |  |

| Compound | hDAT (IC50 nM) [1] | hNET (IC50 nM) [2] | IC50 [3] [nM] | immobility in the tail suspension test [4] | affinity for the serotonin uptake sites (serotonin uptake sites) |
| --- | --- | --- | --- | --- | --- |
| Clc1ccc(C2(C3CCNC3)CCOCC2)cc1Cl (centres unmarked) [Compound 16] | +++ (IC50 < 10 nM) | +++ (IC50 < 10 nM) | < 10 |  |  |
| C[C@]1(O)CC[C@@](c2ccc(Cl)c(Cl)c2)([C@H]2CCNC2)CC1 [Compound 17] | ++ (IC50 ≦ 100 nM) | +++ (IC50 < 10 nM) | < 10 |  |  |
| C[C@]1(O)CC[C@@](c2ccc(Cl)c(Cl)c2)([C@@H]2CCNC2)CC1 [Compound 18] | ++ (IC50 ≦ 100 nM) | +++ (IC50 < 10 nM) | < 10 |  |  |
| C[C@]1(O)CC[C@](c2ccc(Cl)c(Cl)c2)([C@@H]2CCNC2)CC1 [Compound 19] | +++ (IC50 < 10 nM) | ++ (IC50 ≦ 100 nM) | < 10 |  |  |
| C[C@]1(O)CC[C@](c2ccc(Cl)c(Cl)c2)([C@H]2CCNC2)CC1 [Compound 20] | +++ (IC50 < 10 nM) | ++ (IC50 ≦ 100 nM) | < 10 |  |  |
| O[C@H]1CC[C@@](c2ccc(Cl)c(Cl)c2)([C@H]2CCNC2)CC1 [Compound 21] | ++ (IC50 ≦ 100 nM) | +++ (IC50 < 10 nM) | < 10 |  |  |
| O[C@H]1CC[C@@](c2ccc(Cl)c(Cl)c2)([C@@H]2CCNC2)CC1 [Compound 22] | +++ (IC50 < 10 nM) | +++ (IC50 < 10 nM) | < 10 |  |  |
| O[C@H]1CC[C@](c2ccc(Cl)c(Cl)c2)([C@H]2CCNC2)CC1 [Compound 23] | +++ (IC50 < 10 nM) | +++ (IC50 < 10 nM) | < 10 |  |  |
| O[C@H]1CC[C@](c2ccc(Cl)c(Cl)c2)([C@@H]2CCNC2)CC1 [Compound 24] | +++ (IC50 < 10 nM) | ++++ (IC50 < 1 nM) | < 1 |  |  |
| CO[C@]1(C)CC[C@](c2ccc(Cl)c(Cl)c2)([C@H]2CCNC2)CC1 [Compound 25] | +++ (IC50 < 10 nM) | ++ (IC50 ≦ 100 nM) | < 10 |  |  |
| CO[C@]1(C)CC[C@](c2ccc(Cl)c(Cl)c2)([C@@H]2CCNC2)CC1 [Compound 26] | +++ (IC50 < 10 nM) | +++ (IC50 < 10 nM) | < 100 |  |  |
| CO[C@]1(C)CC[C@@](c2ccc(Cl)c(Cl)c2)([C@@H]2CCNC2)CC1 [Compound 27] | ++ (IC50 ≦ 100 nM) | +++ (IC50 < 10 nM) | < 10 |  |  |
| CO[C@]1(C)CC[C@@](c2ccc(Cl)c(Cl)c2)([C@H]2CCNC2)CC1 [Compound 28] | ++ (IC50 ≦ 100 nM) | +++ (IC50 < 10 nM) | < 100 |  |  |
| O[C@@]1(C2(c3ccc(Cl)c(Cl)c3)CCCC2)CCNC1 [Compound 29] | ++ (IC50 ≦ 100 nM) | +++ (IC50 < 10 nM) | < 10 |  |  |
| O[C@]1(C2(c3ccc(Cl)c(Cl)c3)CCCC2)CCNC1 [Compound 30] | ++ (IC50 ≦ 100 nM) | ++ (IC50 ≦ 100 nM) | < 100 |  |  |
